Test results published in patent publication US20250120922A1, “COMPOSITION FOR IMPROVING COW REPRODUCTIVE ABILITY” (SOLOMON CO., LTD., priority 2022, published 2025).
Several values for one entry are separate records, joined by “and”; a condition that tells them apart may be missing. Identical values can stand only once.

Tested on: cows after calving
Assay: Effect of improving cow reproductive ability (first return to estrus after calving, composition mounted on the leash)
Type: in vivo
Details: for First return to estrus day after calving: leash mounting type, 3 heads
From the text: The mixture was poured into a wax tray and completely hardened to prepare a composition for improving cow reproductive ability.
By using the composition prepared in Example 2, the effect of improving the cow reproductive ability was confirmed after being mounted on the leash of cows after calving. The first return to estrus after calving was generally known to be 60 to 90 days, and in the experiment, confirmed to be average 84.20±6.64 in the case of cow used as a control group.

`Cc1ccc(O)cc1` [p-cresol] was tested, and the “First return to estrus day after calving” value (1% p-cresol in paraffin wax block) was 46 ± 4 days, the “First return to estrus day after calving” value (5% p-cresol in paraffin wax block) was 28 days and 28 ± 4 days and the “Return of estrus earlier than the earliest normal return time of estrus (approximately 45 days after calving)” value (5% p-cresol pheromone block) was “about 17 days”.
